Measurements as given in patent US9174988B2, “Small molecule inhibitors of hepatitis C virus” (TRUSTEES OF BOSTON UNIVERSITY, priority 2009, dated 2015).
Where two headings read alike, the source gives them in different places.

Key:
[1] = molecular target: T1, core106 (HCV core protein domain) dimerization (Hepatitis C virus genotype 1a, UniProt P27958); experiment: Core106 ALPHA screen (AlphaScreen) core dimerization assay; format: binding; conditions: for inhibition of core dimerization (in words): level of activity in words, partly relative to 16
T1 construct: a core106 protein domain was tagged with either Glutathione-S-transferase (GST) tag or a Flag peptide tag
T1 sequence (P27958 2-106): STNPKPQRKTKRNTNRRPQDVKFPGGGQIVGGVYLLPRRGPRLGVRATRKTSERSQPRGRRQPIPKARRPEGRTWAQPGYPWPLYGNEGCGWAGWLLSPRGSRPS
Method: FIG. 16b is a dose-response analysis of compound 1 (SL201). Core106 ALPHA screen assay was used for the dose-response analyses. The compound was dosed from 0 to 100 μM. The IC50 was calculated using a non-linear regression ‘Log (inhibitor) versus response’ with four points for each concentration.
Core106 ALPHA screen assay was used for the dose response analyses. The compounds were dosed from 0 to 100 μM. The IC50 were calculated using a nonlinear regression “Log (inhibitor) vs. response” with 4 points for each concentration. The difference in IC50 for compound 1 (SL201) is due to the using two different lots of SL201 and the values are within experimental error.
This assay employed the AlphaScreen® technology, a secondary Amplified Luminescent Proximity Homogeneous Assay as described in Kota, et al, J. Gen Virol. (2009) 90: 1319-1328, content of which is herein incorporated by reference. AlphaScreen is based on the use of photoactive donor and acceptor beads that recognize specific tags on interacting proteins (Peppard, 2003). Core106 dimerization was confirmed using AlphaScreen technology in which a core106 protein domain was tagged with either Glutathione-S-transferase (GST) tag or a Flag peptide tag. The untagged core106 protein domain was used as a model competitor in the assay. The proteins were diluted to working concentrations in ‘protein buffer’ (100 mM HEPES pH 7.5, 1 mM EDTA, 5 mM DTT, 0.1% CHAPS, 10% glycerol). The donor and acceptor beads were diluted to working concentrations in ‘bead buffer’ (20 mM HEPES pH7.5, 125 mM NaCl, 0.1% BSA, 0.1% CHAPS). GST-tagged core106 (150 nM) was incubated with 150 nM of Flag-tagged core106 for 1 h at room temperature. Anti-Flag acceptor beads (Perkin Elmer Lifesciences) were added to the proteins at a final concentration of 20 μg/ml and incubated for 1 h at room temperature. Then, Glutathione donor beads (Perkin Elmer Lifesciences) were added to the proteins at a final concentration of 20 μg/ml and incubated for 1 h. The assays were executed in a white 384 well Packard opti plate (Perkin Elmer Lifesciences) and were read on Perkin Elmer Envision.
Uninhibited or 0% inhibition control is defined as wells containing only GST-core106 and Flag-core106. 100% inhibition control is defined as wells containing GST-core106 and Flag-core106 with core106 as an inhibitor. Test compound is wherein the test compound is analyzed.
Compounds were tested in triplicate in a 10-point series starting at a nominal test concentration of 50 nM. For each test compound, percent inhibition was plotted against compound concentration. A four parameter equation describing a sigmoidal dose-response curve was plotted using GraphPad Prism® (GraphPad Software Inc). The reported IC50 values were generated from fitted curves by solving for the X-intercept value at the 50% inhibition level of the Y-intercept value.

[2] = XTT cytotoxicity assay (CC50); format: cell-based; conditions: human, CC50
Source text: (§1) This assay utilized the compound XTT (2,3-bis[2-methoxy-4-nitro-5-sulfophenyl]-2H-tetrazolium-5-carboxyanilide inner salt) with addition of an electron coupling agent phenazine methosulfate (PMS) to measure mitochondrial dehydrogenases activity in living cells, e.g., Huh-7.5 cells. Dehydrogenases in mitochondria of living cells cleave the tetrazolium ring of XTT changing the color of the solution from clear to orange. As designed, compounds that reduce cell viability will reduce activity of the mitochondrial dehydrogenases, and leave a decreased orange color in solution.
(§2) The Huh-7.5 cell line was routinely cultured in 15-cm dishes at 37 degrees C. and 95% relative humidity (RH). The growth media consisted of DMEM supplemented with 10% v/v certified fetal bovine serum, 4 mM L-glutamine, 1 mM sodium pyruvate, 1× antibiotic mix (penicillin, streptomycin, and glutamine), and 1× non-essential amino acids.
(§3) Prior to the start of the assay 8000 cells in 100 microliter volume of colorless growth media were dispensed into each well of 96-well tissue culture-treated microtiter plates and incubated overnight at 37 degrees C. (5% CO2, 95% RH) to allow cells to adhere to the plate. The next day, 100 microliter of test compound in DMSO (1.25% final DMSO concentration) and DMSO only were added to wells. Wells with only test compound in media without cells were used to normalize the data (to account for the color a test compound may have). Next, the plates were incubated for 72 hours at 37 degrees C. (5% CO2, 95% RH). Solution of XTT-PMS was prepared in 1×PBS and added to the cells in 50 microliter volume to each well and incubated for 4 hours at 37 degrees C. (5% CO2, 95% RH). After equilibrating the plates to room temperature for 10 minutes, optical density at 450 nm and […] was measured on Biotek plate reader.
(§4) The percent inhibition for each compound was calculated as follows: % Inhibition=((DMSO Control−Test compound)/DMSO Control)*100, wherein Test compound is defined as wells containing test compound.
(§5) Compounds were tested in triplicate in a 7-point 1:3 dilution series starting at a nominal test concentration of 320 micromolar. For each test compound, percent inhibition was plotted against compound concentration. A four parameter equation describing a sigmoidal dose-response curve was then fitted with adjustable baseline using MicroSoft Excel software. The reported CC50 values were generated from fitted curves by solving for the X-intercept value at the 50% inhibition level of the Y-intercept value.

Huh-7.5 cells = experiment: XTT cytotoxicity assay (CC50); format: cell-based; conditions: human, 72 h
Source text: as §1, §2, §3, §4, §5

HCV 2a J6/JFH-1 = experiment: HCV infectivity assay by real-time RT-PCR of HCV RNA (EC50 at T1 and T2); format: cell-based, hepatitis C virus; conditions: for EC50's (stage not specified): HCV 2a strain J6/JFH-1 in hepatoma cells; for EC50: Hepatitis C virus
Method: In this assay HCV infectivity is measured using real-time RT-PCR to monitor changes in expression of HCV 2a J6/JFH-1 RNA. Cells are incubated with test compound in the presence of HCV, followed by isolation of RNA, conversion to cDNA, and Taqman-based QPCR. As designed, a compound that inhibits HCV infectivity will reduce HCV RNA expression, leading to decreased production of the PCR amplicon, thereby reducing fluorescence, and increasing Ct.
Huh-7.5 cells were plated the day before the assay. After allowing the cells to adhere overnight, test compound was prepared in HCV supernatant by making 1:10 serial dilutions from 100 micromolar down to 0.001 micromolar. Doses of test compound in virus were added to cells and incubated for 24 hours. The next day, cell culture media was removed from each well and replaced with same dilutions of compound in complete media were added to cells and incubated for another 48 hours for T1 timepoint. Then cells were lysed and RNA was isolated using the RNeasy kit (QIAGEN, Valencia, Calif.). Supernatant from T1 was transferred to fresh naïve cells and incubated for 24 hours. Culture media were removed from cells and replaced with complete media and incubated for 48 hours for T2 timepoint. Cells for T2 timepoint were lysed and RNA was isolated using the RNeasy kit (QIAGEN, Valencia, Calif.). DNA was generated using the Taqman reverse transcription kit (Applied Biosystems, Foster City, Calif.). Quantitative real-time polymerase chain reaction (PCR) was performed in triplicate using LightCycler RNA Amplification Kit HybProbe master mix (Roche) with Taqman MGB Probe 6FAM-[…]-MGBNFQ on a model LightCycler480 real time PCR system (Roche). Data are expressed as the mean fold change plus or minus SE of 3 replicates normalized to 100 ug total RNA. Primers used were forward […] and reverse […]. The range of activity was normalized based on measurement of total RNA. Compounds were tested in triplicate in a 6-point 1:10 dilution series starting at a nominal test concentration of 100 micromolar.
The compounds were then studied in the same Huh7-5 cells infected with HCV 2a strain J6/JFH-1 (Kota, et al., ASSAY Drug Dev. Tech (2009) 8: 96). Huh-7.5 hepatoma cells were electroporated with RNA from HCV and the 72-hour supernatant was used as a source of infectious virus. This supernatant was combined with compounds identified as inhibitors of core dimerization. Two stages of infection were studied: early stage (T1), corresponding to the initial 72-hour culture of naïve cells infected in the presence of the inhibitor, and late stage (T2), corresponding to the second 72-hour passage through naïve cells. HCV RNA detected in T1 results from actual viral infection and replication. HCV RNA detected in T2 results from infectious virus secreted in T1 and replicated in freshly infected naïve cells. Real-time reverse-transcriptase PCR was done on RNA extracted and purified from the cells treated with increasing concentrations (0.001-100 μM) of each of the compounds. […] For comparative purposes, data for BILN2061a known inhibitor of the NS3/NS4A protease (Lamarre, et al., Nature (2003) 426: 186), is included.

[3] = inhibition of core dimerization, Table 3, read-out: IC50
[4] = inhibition of core dimerization, see FIG. 17, Table 2, read-out: IC50
[5] = Huh7.5, read-out: HCV2a J6/JFH-1 T1-EC50
[6] = Huh7.5, read-out: HCV2a J6/JFH-1 T2-EC50
[7] = AlphaScreen, read-out: IC50 for inhibition of core dimerization

SMILES	IC50 [1, 3] [µM]	IC50 [1, 4] [µM]	CC50 at 72 h [2] [µM]	CC50 (Huh-7.5 cells) [µM]	EC50's (stage not specified) (HCV 2a J6/JFH-1)	EC50 (HCV 2a J6/JFH-1; [5]) [µM]	EC50 (HCV 2a J6/JFH-1; [6]) [µM]	EC50 (HCV 2a J6/JFH-1; read-out: HCV 2A T1 - EC50) [µM]	EC50 (HCV 2a J6/JFH-1; read-out: HCV 2A T2 - EC50) [µM]	IC50 [1, 7] [µM]	inhibition of core dimerization (in words) [1]
CC#CCN1c2ccccc2[C@]23CCC(=O)N(CCOC)C2=NC(C(=O)OC)=C(C(=O)OC)C13 (mixture of isomers) [Compound 15]	2	2	> 320	> 320	single digit	4.9	0.7	4.9	0.7		
C=CCN1c2ccccc2[C@]23CCC(=O)N(Cc4ccccc4)C2=NC(C(=O)OC)=C(C(=O)OC)C13 (mixture of isomers) [Compound 16]	1.4	1.4	127	127	single digit	2.3	3.2	2.3	3.2	1.4	
C=CCN1c2ccccc2[C@]23CCC(=O)N(Cc4cc(OC)c(OC)c(OC)c4)C2=NC(C(=O)OC)=C(C(=O)OC)C13 (mixture of isomers) [Compound 17]	2	2	5.3			3.8	3	3.8	3		
COC(=O)C1=C(C(=O)OC)C2N(C)c3ccc(OC)cc3[C@@]23C[C@@H](C(=O)OC)N(C(=O)CC(C)C)C3=N1 (single isomer, unassigned) [Compound 1]	9.3	9.3	> 320	> 320		14.8	22.2	8.8	8.1	5.7	
COc1ccc2c(O[C@@H]3C[C@H]4C(=O)N[C@]5(C(=O)O)C[C@H]5/C=C\CCCCC[C@H](NC(=O)OC5CCCC5)C(=O)N4C3)cc(-c3csc(NC(C)C)n3)nc2c1 [BILN2061, reference compound]			5.3			0.072	0.071				
COC(=O)[C@@H]1C[C@@]23C(=NC(c4ccc([N+](=O)[O-])cc4)=C(C(F)(F)F)C2N(C)c2ccccc23)N1C(C)=O (some centres unmarked) [Compound 22a]			310					1.3	0.9	5.6	
COC(=O)C1=C(C(=O)OC)C2N(CCCCCn3cc(-c4ccc(OC)cc4C)nn3)c3ccccc3[C@@]23CCC(=O)N(Cc2ccccc2)C3=N1 (some centres unmarked) [Compound 27]			> 100					1.4	1.1	0.092	sub-micromolar
COC(=O)C1=C(C(=O)OC)C2N(CCCCCn3cc(CNC(C)=O)nn3)c3ccccc3[C@@]23CCC(=O)N(Cc2ccccc2)C3=N1 (some centres unmarked) [Compound 28]	0.341		150					26.2	56.2		sub-micromolar
COC(=O)C1=C(C(=O)OC)C(NCCCN2c3ccccc3[C@]34CCC(=O)N(Cc5ccccc5)C3=NC(C(=O)OC)=C(C(=O)OC)C24)[C@@]2(c3ccccc3)CCC(=O)N(Cc3ccccc3)C2=N1 (some centres unmarked) [SL235]	2.9		> 36					0.088	0.735		
